Assays:
[1] = tested on: Bifidobacterium infantis strain PB-STR-093; test: Antibiotic susceptibility (MIC) of isolated strains, EFSA standards; assay type: cell-based; conditions: observed value
Experimental: In alternative embodiments the complete genome sequence of each organism is screened to ensure it contains no genes or pathogenicity island gene clusters encoding known virulence factors, toxins, or antibiotic resistance functions, using publicly available databases such as DBETH55 (for example, see Chakraborty A, et al. (2012) Nucleic Acids Res. 40:615-620) and VFDB56 (Chen L, et al. (2005) Nucleic Acids Res. 33:325-328). Each organism is evaluated by standard antibiotic sensitivity profile techniques such as broth microdilution susceptibility panels or plate-based methods such as disk diffusion method and antimicrobial gradient method (James H. Jorgensen and Mary Jane Ferraro 2009 Clinical Infectious Diseases 49:1749-1755). Such tests determine the minimal inhibitory concentration (MIC) of an antibiotic on microbial growth. Antibiotics evaluated include but are not limited to amoxicillin, amoxicillin/clavulanic acid, carbapenem, methicillin, ampicillin, gentamicin, metronidazole, vancomycin, and neomycin. MIC determinations of novel microbes are compared to published values for both sensitive and resistant related strains to make an assessment on sensitivity (CLSI Guideline M45: Methods for Antimicrobial Dilution and Disk Susceptibility Testing of Infrequently Isolated or Fastidious Bacteria. Wayne, PA; 2015) to determine possible relative increases in antibiotic resistance.

[2] = tested on: Bifidobacterium infantis strain PB-STR-093; conditions: expected value based on the EFSA standards; cited from earlier work
[3] = tested on: simulated gut environment; test: Simulated gut environment: community composition after introduction of bacteria and/or prebiotics (whole genome sequencing); assay type: cell-based, human; conditions: B. infantis combined with lacto-N-tetraose (LNT)
Experimental: The ability of a bacterial addition (representing a probiotic application) to shift the composition of the gut environment was evaluated through the introduction of Bifidobacterium infantis isolate PB-STR-093.
Fifteen different combinations were evaluated covering Bifidobacterium infantis, Bifidobacterium longum, Bifidobacterium breve, and Bifidobacterium bifidum (shown in table 31, where the numerical value for each combination represents the ratio of the microbe in the combination). […] Compositions were also evaluated for their ability to reduce pathogenic species, as well as their metabolic output.

Escherichia coli = test: Simulated gut environment: levels of potentially pathogenic bacteria; assay type: cell-based; conditions: LNT as carbon source together with B. infantis
Experimental: (§1) To understand the applicability of in vitro observations to the human gut, strains are evaluated in the context of a simulated gut environment. These gut environments are produced with minimal media and seeded with FMT aliquots (Example 2) to reproduce an environment that represents the gut. In these environments, the introduction of prebiotics (in the form of carbon sources, nitrogen sources, and other small molecules) and the introduction of bacteria can be used to shift the community composition, metabolic output, and immunological impact of the gut environments. This allows prebiotic, probiotic, and synbiotic (prebiotic and, probiotic) combinations to be rapidly evaluated to confirm or reject observations determined in simpler systems such as single strain microbial cultures. In subsequent embodiments, machine learning will be used to further reduce the space that must be explored experimentally.

[4] = tested on: Streptococcus vestibularis; test: as above; assay type: cell-based; conditions: LNT as carbon source together with B. infantis
Experimental: as §1

[5] = Growth (OD600) of isolated microbial strains on medium with different carbon sources; assay type: cell-based
Experimental: The growth of isolated strains is evaluated to determine their ability to consume carbon sources and produce specific metabolites. Strains are grown in a minimal media (for example 2 grams (2 ml fine) peptone water (peptone, 10 g/L sodium chloride, 5 g/L), 2 grams yeast extract, 2 grams NaHCO3, 0.1 g NaCl, 0.04 g K2HPO4, 0.04 g KH2PO4, 0.01 g MgSO4·7H2O, 0.01 g CaCl2·6H2O, 2 ml Tween 80, 10 g carbohydrate of choice, 10 μl vitamin K, 0.5 g cysteine, 0.5 g bile salts) that affords control over carbon source. Examples of carbon sources evaluated (independently or in combination) include but are not limited to glucose, lactose, galactose, fructose, xylose, galactooligosaccharides, fructooligosaccharides, xylooligosaccharides, lacto-N-tetraose, lacto-N-neotetraose, 2′-fucosyllactose, 3-fucosyllactose, 3′-sialyllactose, and 6′-sialyllactose. Growth is evaluated by determination of the OD600, which can be performed either on individual samples with a cuvette or tube-based spectrometer (for example the CO 75000™ colorimeter) or on multiple samples in a plate-based format using a plate reader (for example CYTATION 3™). In both cases, values are normalized based on signals from media alone.
Select bacteria were evaluated for their ability to consume different carbon sources to aid in selection of live biotherapeutic (probiotic) bacteria and combinations, mixes and consortia of bacteria as provided herein, and prebiotic combinations (see Table 6) used in compositions and methods as provided herein;

O=C(N[C@H](CO)[C@H](O)c1ccc([N+](=O)[O-])cc1)C(Cl)Cl [Chloramphenicol]
Observed Antibiotic MIC [1]: 4 mg/L | Expected Antibiotic MIC [2]: 4 mg/L

[H]/N=C(/N)N[C@H]1[C@H](O)[C@@H](O)[C@H](O[C@@H]2O[C@@H](C)[C@](O)(C=O)[C@H]2O[C@@H]2O[C@@H](CO)[C@H](O)[C@@H](O)[C@@H]2NC)[C@@H](N/C(N)=N\[H])[C@@H]1O [Streptomycin]
Observed Antibiotic MIC [1]: 32 mg/L | Expected Antibiotic MIC [2]: 128 mg/L

CC1(C)S[C@@H]2[C@H](NC(=O)[C@H](N)c3ccccc3)C(=O)N2[C@H]1C(=O)O [Ampicillin]
Observed Antibiotic MIC [1]: 2 mg/L | Expected Antibiotic MIC [2]: 2 mg/L

Gentamicin
Observed Antibiotic MIC [1]: 64 mg/L | Expected Antibiotic MIC [2]: 64 mg/L

CN[C@H](CC(C)C)C(=O)N[C@H]1C(=O)N[C@@H](CC(N)=O)C(=O)N[C@H]2C(=O)N[C@H]3C(=O)N[C@H](C(=O)N[C@H](C(=O)O)c4cc(O)cc(O)c4-c4cc3ccc4O)[C@H](O)c3ccc(c(Cl)c3)Oc3cc2cc(c3O[C@@H]2O[C@H](CO)[C@@H](O)[C@H](O)[C@H]2O[C@H]2C[C@](C)(N)[C@H](O)[C@H](C)O2)Oc2ccc(cc2Cl)[C@H]1O [Vancomycin]
Observed Antibiotic MIC [1]: 0.5 mg/L | Expected Antibiotic MIC [2]: 2 mg/L

CC(=O)N[C@H]1[C@H](O[C@H]2[C@@H](O)[C@@H](CO)O[C@@H](O[C@H]3[C@H](O)[C@@H](O)C(O)O[C@@H]3CO)[C@@H]2O)O[C@H](CO)[C@@H](O)[C@@H]1O[C@@H]1O[C@H](CO)[C@H](O)[C@H](O)[C@H]1O (some centres unmarked) [LNT, lacto-N-tetraose]
growth, engraftment and abundance of Bifidobacterium infantis in the sample [3]: further boosts the abundance of Bifidobacterium infantis | level of Escherichia coli in simulated gut environment (Escherichia coli): further reduces the presence of these bacteria | level of Streptococcus vestibularis in simulated gut environment [4]: further reduces the presence of these bacteria

CC[C@H]1OC(=O)[C@H](C)[C@@H](O[C@H]2C[C@@](C)(OC)[C@@H](O)[C@H](C)O2)[C@H](C)[C@@H](O[C@@H]2O[C@H](C)C[C@H](N(C)C)[C@H]2O)[C@](C)(O)C[C@@H](C)C(=O)[C@H](C)[C@@H](O)[C@]1(C)O [Erythromycin]
Observed Antibiotic MIC [1]: 1 mg/L | Expected Antibiotic MIC [2]: 1 mg/L

CCC[C@@H]1C[C@@H](C(=O)N[C@@H]([C@H]2O[C@H](SC)[C@H](O)[C@@H](O)[C@H]2O)[C@H](C)Cl)N(C)C1 [Clindamycin]
Observed Antibiotic MIC [1]: 0.125 mg/L

Bacteroides fragilis
OD(600) after 24 hours growth ([5]; carbon source 2′-FL): 0.261 | OD(600) after 24 hours growth ([5]; carbon source 3′-SL): 0.457 | OD(600) after 24 hours growth ([5]; carbon source FOS): 0.433 | OD(600) after 24 hours growth ([5]; carbon source GOS): 0.325 | OD(600) after 24 hours growth ([5]; carbon source Glucose): 0.353 | OD(600) after 24 hours growth ([5]; carbon source LNT): 0.337 | OD(600) after 24 hours growth ([5]; carbon source Mucin): 0.186 | OD(600) after 24 hours growth ([5]; carbon source XOS): 0.359 | OD(600) after 24 hours growth ([5]; medium with No Carbohydrate): 0.073

CN(C)[C@@H]1C(O)=C(C(N)=O)C(=O)[C@@]2(O)C(O)=C3C(=O)c4c(O)cccc4[C@@](C)(O)[C@H]3C[C@@H]12 [Tetracycline]
Observed Antibiotic MIC [1]: 4 mg/L

Source: US20260231998A1, “COMPOSITIONS FOR MODULATING GUT MICROFLORA POPULATIONS, TREATMENT OF DYSBIOSIS AND DISEASE PREVENTION, AND METHODS FOR MAKING AND USING SAME” (PERSEPHONE BIOSCIENCES, INC., priority 2023, published 2026)
